One may read the IC50 as the concentration at which inhibition is half-maximal. A low value points to greater potency.

Among the data in BindingDB's records for doi:10.1021/jm950655o (University of Arizona, 1996) are IC50 values, retold here.

This assay has as its target Delta-type opioid receptor (Cavia porcellus). Kind of assay: Inhibition of binding [3H]cyclo[D-Pen2,p-Cl,-Phe4,D-Pen5] enkephalin to Opioid receptor delta 1 of guinea pig brain membrane (GPB) homogenates.

A value given as a limit tells only on which side of the number the result lay.

As for `CC[C@H](C)[C@H](NC(=O)[C@H](CCCN=C(N)N)NC(=O)[C@H](CCCN=C(N)N)NC(=O)[C@H](CC(C)C)NC(=O)[C@H](Cc1ccccc1)NC(=O)[C@H](Cc1ccc(O)cc1)NC(=O)CNC(=O)[C@@H](N)Cc1ccc(O)cc1)C(=O)N[C@@H](CCCN=C(N)N)C(=O)N1CCC[C@H]1C(=O)N[C@@H](CCCCN)C(N)=O`, the IC50 is above 10 µM.
